From patent publication US11219619B2, “Therapeutic agent for hepatocellular carcinoma” (Eisai R&D Management Co., Ltd., priority 2018, dated 2022) come the findings set out here.

SMILES strings stand for the structures.

The subject of assay [1] is Human-derived hepatocellular carcinoma cell line Hep3B2.1-7. The experiment in a line: Antitumor action against human hepatocellular carcinoma cell line Hep3B2.1-7 transplanted subcutaneously in nude mice. It is filed as in vivo. The settings on record: Hep3B2.1-7 xenograft. As for the experimental part: (§1) Five nude mice (CAnN.Cg-Foxnlnu/CrlCrlj, female, CHARLES RIVER LABORATORIES JAPAN, INC.) were used in each group, and the antitumor effect in a case where compound A was administered was evaluated.
Human-derived hepatocellular carcinoma cell line Hep3B2.1-7 (obtained from ATCC) cells were suspended in a Hank's Balanced Salt Solution (HBSS) so that the concentration of the cells was 4×10^7 cells/mL. Into the suspension, Matrigel™ Matrix (Becton, Dickinson and Company, Japan) in the same volume as that of the suspension was added, and the obtained mixture was sufficiently mixed. The mixture in an amount of 0.1 mL was transplanted into the subcutaneous part in the right flank of each mouse, and the mouse was subjected to the antitumor effect evaluation.
On 19 days after the transplantation, the longest diameter and the short axis of the tumor were measured with an electronic digital caliper (Digimatic™ Caliper, Mitutoyo Corporation). The mice were divided into groups so that the average values of the tumor volumes in the respective groups were substantially equal to each other. In addition, the tumor volume was calculated in accordance with the following equation. Tumor volume (mm^3)=longest diameter (mm)×short axis (mm)×short axis (mm)/2
Compound A was dissolved in purified water so that the concentration of compound A was 5 mg/mL.
Compound A was administered to each of the mice in the respective groups at a dose of 100 mg/kg once daily for 5 days. After that, compound A was withdrawn for 2 days, and then administered orally for 4 days. In this regard, the volume to be administered was set to 20 mL/kg, and to the control group, purified water in the same volume was administered.
A general note: In xenograft studies the graft and the host belong to different species.

Another assay deals with Hep3B2.1-7. Description: Proliferation of hepatocellular carcinoma cell line Hep3B2.1-7 (CellTiter Glo-2.0). It is filed as cell-based. The settings on record: Homo sapiens, 144 h; Hep3B2.1-7, cultured for 6 days, 10% FBS. As for the experimental part: (§2) As the human hepatocellular carcinoma cell line, SNU-398, Li-7, Hep3B2.1-7, and HuH-7 were used. In this regard, SNU-398, and Hep3B2.1-7 were obtained from American Type Culture Collection (ATCC), Li-7 was obtained from Cell Resource Center for Biomedical Research, Institute of Development, Aging and Cancer, Tohoku University, and HuH-7 was obtained from JCRB Cell Bank, respectively.
(§3) For each cell line, maintenance culture was performed by using the following medium.
An EMEM medium (Wako Pure Chemical Industries, Ltd.) containing 10% FBS and penicillin/streptomycin […]
(§4) The number of cells in each well after the culture was calculated by measuring the intracellular ATP level with the emission intensity using CellTiter Glo-2.0 (Promega Corporation, catalog number: G9243).
(§5) CellTiter Glo-2.0 was added in an amount of 50 μL into each well, and the mixture was mixed for 10 minutes with a plate mixer. After that, the mixture was allowed to react at room temperature for 10 minutes, and then the luminescence was measured with Multilabel Reader (ARVO X4, PerkinElmer, Inc.) The luminescence value ratio in the presence of a compound A was determined, assuming that the luminescence value in a case where Compound A had not added was set to 100% and the luminescence value in a well where cells had not been present was set to 0%. […]
(Cellular ATP, detected with luciferase, serves as a proxy for viable cell number.)

The test system of the next assay is HuH-7. The experiment in a line: Proliferation of hepatocellular carcinoma cell line HuH-7 (CellTiter Glo-2.0). It is filed as cell-based. Conditions: Homo sapiens, 144 h; HuH-7, cultured for 6 days, 10% FBS. As for the experimental part: as §2, §3
A DMEM-low glucose medium (Wako Pure Chemical Industries, Ltd.) containing 10% FBS and penicillin/streptomycin […]
as §4, §5

The test system of assay [2] is Human-derived hepatocellular carcinoma cell line SNU-398. Description: Antitumor action against human hepatocellular carcinoma cell line SNU-398 transplanted subcutaneously in nude mice. Type of assay: in vivo. Conditions: SNU-398 xenograft. As for the experimental part:
as §1
(§6) Human-derived hepatocellular carcinoma cell line SNU-398 (obtained from ATCC) cells were suspended in a HBSS so that the concentration of the cells was 5×10^7 cells/mL. Into the suspension, Matrigel™ Matrix (Becton, Dickinson and Company, Japan) in the same volume as that of the suspension was added, and the obtained mixture was sufficiently mixed. The mixture in an amount of 0.1 mL was transplanted into the subcutaneous part in the right flank of each mouse, and the mouse was subjected to the antitumor effect evaluation.
On 9 days after the transplantation, the longest diameter and the short axis of the tumor were measured with an electronic digital caliper (Digimatic™ Caliper, Mitutoyo Corporation). The mice were divided into groups so that the average values of the tumor volumes in the respective groups were nearly equal to each other. In addition, the tumor volume was calculated in accordance with the following equation. Tumor volume (mm^3)=longest diameter (mm)×short axis (mm)×short axis (mm)/2
Compound A was dissolved in purified water so that the concentration of compound A was […] or 2.5 mg/mL.
Compound A was administered orally to each of the mice in the respective groups at a dose of 25 mg/kg or 50 mg/kg once daily for 11 days. In this regard, the volume to be administered was set to 20 mL/kg. The control group was untreated.

The test system of another assay is SNU-398. Description: Proliferation of hepatocellular carcinoma cell line SNU-398 (CellTiter Glo-2.0). Type of assay: cell-based. The settings on record: Homo sapiens, 144 h; SNU-398, cultured for 6 days, 10% FBS. On the procedure: as §2, §3
(§7) An RPMI-1640 medium (Wako Pure Chemical Industries, Ltd.) containing 10% fetal bovine serum (FBS) and penicillin/streptomycin […]
as §4, §5

The subject of the next assay is Li-7. Description: Proliferation of hepatocellular carcinoma cell line Li-7 (CellTiter Glo-2.0). Type of assay: cell-based. Conditions: Homo sapiens, 144 h; Li-7, cultured for 6 days, 10% FBS. On the procedure: as §2, §3, §7, §4, §5
The test system of assay [3] is Human-derived hepatocellular carcinoma cell line HuH-7. The experiment in a line: Antitumor action against human hepatocellular carcinoma cell line HuH-7 transplanted subcutaneously in nude mice. Conditions: HuH-7 xenograft. It is filed as in vivo. As for the experimental part: as §1
as §6, with “HuH-7” for “SNU-398”, “JCRB Cell Bank)” for “ATCC)”, “DMEM medium (Wako Pure Chemical Industries, Ltd.) containing 10% bovine serum” for “HBSS”, “8.0×10^7” for “5×10^7”
On 11 days after the transplantation, the longest diameter and the short axis of the tumor were measured with an electronic digital caliper (Digimatic™ Caliper, Mitutoyo Corporation). The mice were divided into groups so that the average values of the tumor volumes in the respective groups were nearly equal to each other. In addition, the tumor volume was calculated in accordance with the following equation. Tumor volume (mm^3)=longest diameter (mm)×short axis (mm)×short axis (mm)/2
Compound A was dissolved in purified water so that the concentration of compound A was 2.5 mg/mL.
Compound A was administered to each of the mice in the respective groups at a dose of 50 mg/kg once daily for 5 days. After that, compound A was withdrawn for 2 days, and then administered orally for 3 days. In this regard, the volume to be administered was set to 20 mL/kg, and to the control group, purified water in the same volume was administered.

The mark [4] stands for this setting: Day 0 (baseline), 50 mg/kg group.

In general, IC50 refers to the midpoint of a concentration-inhibition curve. Low readings indicate inhibition by little substance, high ones a need for much substance. `CNC(=O)n1ccc2cc(Oc3ccnc(NC(=O)c4ccc(C5CCN(CCO)CC5)cc4)c3)c(OCCOC)cc21` [Compound A, 5-((2-(4-(1-(2-hydroxyethyl)piperidin-4-yl)benzamide)pyridin-4-yl)oxy)-6-(2-methoxyethoxy)-N-methyl-1H-indole-1-carboxamide sesquisuccinate]: the Tumor volume in assay [1] (Day 0 (baseline), 100 mg/kg group) turned out to be 417.4 mm^3; in assay [1] (Day 3, 100 mg/kg once daily, oral) it was 504.0 mm^3; in assay [1] (Day 7, 100 mg/kg once daily for 5 days, withdrawn 2 days), 630.4 mm^3; in assay [1] (Day 11, 100 mg/kg once daily for 5 days, withdrawn 2 days, then 4 days, oral), 862.3 mm^3; in assay [2] (Day 0 (baseline), 25 mg/kg group) it was 154.5 mm^3; in assay [2] (setting [4]), 153.9 mm^3. In addition, the Tumor volume was found to be 516.4 mm^3 in assay [2] (Day 4, 25 mg/kg once daily, oral); 443.2 mm^3 in assay [2] (Day 4, 50 mg/kg once daily, oral); 942.2 mm^3 in assay [2] (Day 7, 25 mg/kg once daily, oral); 779.0 mm^3 in assay [2] (Day 7, 50 mg/kg once daily, oral); 1280.1 mm^3 in assay [2] (Day 11, 25 mg/kg once daily for 11 days, oral); 1066.1 mm^3 in assay [2] (Day 11, 50 mg/kg once daily for 11 days, oral). Besides, the Tumor volume worked out at 148.1 mm^3 in assay [3] (setting [4]); 409.2 mm^3 in assay [3] (Day 3, 50 mg/kg once daily, oral); 939.9 mm^3 in assay [3] (Day 7, 50 mg/kg once daily for 5 days, withdrawn 2 days); 1400.9 mm^3 in assay [3] (Day 10, 50 mg/kg once daily for 5 days, withdrawn 2 days, then 3 days, oral). Also, the IC50 worked out at 0.077 µM with Hep3B2.1-7, 0.249 µM with HuH-7, 0.026 µM in the assay on SNU-398 and 0.063 µM in the assay with Li-7. Moreover, in assay [2] (25 mg/kg or 50 mg/kg once daily for 11 days, oral), the “Increase in the tumor volume” value is reported as “suppressed in a dose-dependent manner”.
